Measured values from patent US8143222B2, “Modular platform for targeted therapeutic delivery” (Washington University, priority 2007, dated 2012).
No end group written: not given here.

Assays:
[1] = test system: human pancreatic cancer cell lines; assay: S2-BH3 apoptosis in human pancreatic cancer cell lines; assay type: cell-based; settings: up to 10 μM
Method: (§1) Tumor Cells are seeded at a density of 0.2 to 0.5×10^6 cells per mL in 12-well plates and incubated at 37° C. for at least 24 hours (murine cancer cells) or 48 hours (Human cancer cells). After incubation, S2-fusion protein is added to the cell culture medium. The cells are then incubated for 18 hours (active caspase 3) or 24 hours (TUNEL) at 37° C. in humidified 5% CO2. Apoptosis is detected by FACS analysis after staining cells for active caspase-3 (Cell Signaling, Boston, Mass.) or with the APO-BRDU kit (Phenix Flow Systems, San Diego, Calif.). Briefly, cells are washed with PBS, treated with trypsin-EDTA to remove adhesion molecules, and washed again. After centrifugation at 1,200 rpm for 10 min, cells are fixed with 1% paraformaldehyde and washed with PBS. After centrifugation at 1,800 rpm for 10 min, cells are fixed with 90% methanol at −20° C. and washed with PBS. Each pellet is resuspended in 1:100 anti-active caspase-3 antibody (1 μg/ml caspase 3, PBS with 5% FBS) or Br-duTP with TdT, and incubated overnight at 4° C. […] Cell fluorescence signals is determined using a FACScan flow cytometer (BD Biosciences) and analyzed with CellQuest software (BD Biosciences) to measure the percentage of apoptotic cells. […]

[2] = test system: murine pancreatic cancer cell lines; assay: S2-BH3 apoptosis in murine pancreatic cancer cell lines; assay type: cell-based; settings: up to 10 μM
Method: as §1

[3] = test system: established murine pancreas cancers; assay: systemic (intraperitoneal) S2-BH3 in mice with established pancreas cancers; settings: seven intraperitoneal doses over 14 days
Method: The intradermal location is used to facilitate accurate tumor measurements. Tumor diameter is measured with calipers every two days in two dimensions and the data are recorded. Mice are euthanized when the tumors reach 2 cm or ulcerate. In the subcutaneous model, 100,000 Panc-02 cells are utilized.
In these experiments, we have completed the first in vivo administration of our novel therapeutic.

AsPC-1 = assay: Tat-CTMP with gemcitabine, % active caspase-3 by flow cytometry; assay type: cell-based, human; settings: in the presence of gemcitabine (30 nM); 24 hours
Method: In these experiments, a combination of gemcitabine, a commonly-used chemotherapeutic drug for pancreas cancer and Tat-CTMP were tested in our in vitro model. In this study, two human pancreas adenocarcinoma cell lines (Panc-1 and AsPC-1) were treated with TAT-CTMP and TAT-CTMP in the presence and absence of gemcitabine (30 nM). […] Cells were subsequently harvested and % active caspase-3 was assessed by flow cytometry. Each experimental group represents an n=3. […] This experiment was repeated twice with multiple murine and human lines with similar results. (B and C) Antitumor effects of CTMP4 are the result of inhibition of Akt3 and its downstream effectors. […] Samples were treated for 1 hour prior to preparation of cell lysates. Immunoblots were subsequently prepared and stained with (B) anti-total AKT and phospho-AKT ([…]) and (C) anti-total GSK-3β and phospho GSK-3β.

[4] = test system: murine pancreas cancer cells; assay: apoptosis screen of TAT-CTMP fusion peptides, murine cells; assay type: cell-based
Method: as §1

Akt = assay: Western blot of phospho-Akt (Ser-473) in cell lysates; assay type: cell-based, human; settings: Panc-1; one hour after treatment; wortmannin 1 μM, TAT-CTMP 10 μM
Method: In addition we looked at down stream effector GSK-3β using antibodies directed at GSK-3β and phospho GSK-3β.
Cells were subsequently harvested and % active caspase-3 was assessed by flow cytometry. Each experimental group represents an n=3. […] This experiment was repeated twice with multiple murine and human lines with similar results. (B and C) Antitumor effects of CTMP4 are the result of inhibition of Akt3 and its downstream effectors. […] Samples were treated for 1 hour prior to preparation of cell lysates. Immunoblots were subsequently prepared and stained with (B) anti-total AKT and phospho-AKT (Ser^473) and (C) anti-total GSK-3β and phospho GSK-3β.

pancreas cancer cells = assay: TAT-CTMP with radiation, apoptosis; assay type: cell-based; settings: cotreatment with radiation
Source text: CTMP binds to the C-terminal regulatory domain of Akt, inhibiting phosphorylation of Ser^473 and activation of Akt, and thereby promotes apoptosis. CTMP is highly conserved between mouse and human (85% of the residues are identical or conservative replacements) and has two functional domains, a highly structured N-terminal domain and a C-terminal thioesterase domain. Within the N-terminal domain there are four peptides that have structural elements that meet the criteria described by Maira et al (Science 294: 374-380, 2001) as mediating the interaction with Akt. In these experiments, we synthesized TAT-fusion peptides of each of these four domains and screened them for their ability to induce apoptosis in pancreas cancer cells. […] In FIG. 4, the left panel (A), presents a helical wheel diagram (Schiffer, M. and Edmundson, A. B., Biophys. J. 7, 121-135, 1967) of the active domain of CTMP. […] Furthermore, cotreatment with TAT-CTMP4 and radiation results in increased apoptosis (FIG. 4, right panel).

[5] = test system: human pancreas cancer cells; assay: apoptosis screen of TAT-CTMP fusion peptides, human cells; assay type: cell-based
Method: as §1

Compound | apoptosis [1] | apoptosis [2] | tumor growth rate ([3]; 400 μg) | Median Survival ([3]; n = 12 mice per group) [days] | apoptosis (% active caspase-3) (AsPC-1) | apoptosis [4] | active phospho-AKT (Ser-473) (Akt) | radiation-induced apoptosis (pancreas cancer cells) | apoptosis [5]
S2-BH3-in: control peptide: SW141 sigma-2 amino acid coupled to mutated inactive BH3 sequence EIWIAQEARRIGAEFNAYYAR (SEQ ID NO: 3) (also: SW141 sigma-2 ligand conjugated; listed as Homo sapiens) | no appreciable apoptosis | no appreciable apoptosis | not | 35 |  |  |  |  | 
COc1ccc(C)cc1NC(=O)OC1C[C@H]2CCC[C@@H](C1)N2CCCCCCN (some centres unmarked) [SV119] | low, concentration-dependent level of apoptosis | low, concentration-dependent level of apoptosis |  |  |  |  |  |  | 
TAT-CTMP: TAT-fusion peptide of the active N-terminal domain peptide CTMP4 of CTMP (YGRKKRRQRRRLDPKLMKEEQMSQAQLFTRSFDDGL) |  |  |  |  | additive increase in apoptosis | induced appreciable apoptosis | decreased active phospho-AKT | sensitizes pancreas cancer cells to radiation-induced apoptosis in a dose dependent fashion | induced appreciable apoptosis
